# Data from publication PMC10361207, “Cannabinoid and Opioid Receptor Affinity and Modulation of Cancer-Related Signaling Pathways of Machaeriols and Machaeridiols from Machaerium Pers” (Molecules, 2023).
# “Also recorded” adds a separate entry of the source.
# Legend:
# Hedgehog = experiment: Luciferase reporter assay, Hedgehog, HeLa; type: cell-based, human; details: Homo sapiens; HeLa cells; inducer PMA; dash: not inhibited by more than 40% at 50 µmol/L
# Method: (§1) Hela cells (or T98G cells) from ATCC were plated in white opaque 384-well plates at a density of 4300 cells/well in 30 µL of growth medium (DMEM with 10% FBS and 1% Pen/Strep). The next day, the medium was aspirated and replaced with DMEM containing 1% FBS. The cells were transfected with respective plasmids using X-tremeGENE HP DNA transfection reagent (Roche). After 24 h of transfection, the test agents were added to the transfected cells, followed 30 min later by an inducing agent: interleukin 6 (IL-6) for Stat3, TGF-β for Smad, m-wnt3a for Wnt and PMA for AP-1, NF-κB, E2F, Myc, ETS, Notch and Hedgehog. No inducer was added for FoXO and pTK. After 4 h or 6 h of induction, the cells were lysed via the addition of the One-Glo luciferase assay system (Promega; Madison, WI). The light output was detected in a GloMax®-Multi+ Detection System with Instinct® Software (Promega E 8051). This luciferase assay determines if the test agent is able to inhibit the activation of cancer-related signaling pathways. In the case of FoxO, the enhanced luciferase activity via the test agent was assessed.
# μ opioid receptor = target: T1, μ opioid receptor (Homo sapiens, UniProt P35372); experiment: biochemical; type: binding; details: for Percent displacement, µ: 10 μM, [3H]-DAMGO; for Ki: NA = not active, read-out: μ Ki ± SEM
# T1 construct: host or cells: HEK293, stably transfected; membranes
# Method: (§2) HEK293 cells stably transfected with δ, κ and μ opioid subtypes were a generous gift from Roth Laboratories (University of North Carolina at Chapel Hill, N.C., USA). CB and opioid cells were maintained as previously described.
# (§3) Membranes were purified by first washing the cells with cold PBS and scraping the cells into cold 50 mM Tris-HCl, pH 7.4 buffer, which was centrifuged at 5200× g for 10 min at 4 °C; next, the supernatant was discarded, and the pellet was washed with more Tris-HCl buffer, homogenized via a Sonic Dismembrator (Fisher Scientific, Pittsburgh, PA, USA) and then centrifuged at 24,000× g for 40 min at 4 °C. Finally, the pellet was re-suspended in cold 50 mM Tris-HCl buffer, aliquoted into 2 mL vials and stored at −80 °C. The total membrane protein concentration was measured using a Pierce BCA Protein Assay Kit (Thermo Scientific, Rockford, IL, USA) as per the manufacturer’s protocol.
# (§4) Cannabinoid and opioid competitive radioligand binding assays were performed as previously described. Saturation experiments were performed for all the receptors to determine the receptor concentration and radioligand dissociation constant (Kd) for the membrane. Percent displacements were evaluated for all the cannabinoid and opioid subtypes with a triplicate of a fixed concentration (10 µg/mL for extracts and fractions and 10 μM for purified compounds). […] Control/test compounds were dissolved in DMSO at 10 μg/mL for extracts and fractions and 10 μM for purified compounds. […] The percent displacement was calculated to represent the ability of the samples to displace the radioligand binding for a given cannabinoid or opioid receptor subtype.
# (§5) The percent displacement was calculated as follows: 100−binding of compound−nonspecific binding/specific binding×100
# (§6) The competitive binding assays were performed using 12 serial dilutions of each compound ranging from 0.002 to 300 μM (control compounds were serially diluted from 10 μM to 0.06 nM). The cannabinoid assays were incubated for 90 min at 37 °C with gentle agitation. The opioid assays were incubated for 60 min at room temperature. Bound radioligands were collected on GF/C (cannabinoid) or GF/B plates (opioid) and washed 10 times with ice-cold 50 mM Tris-HCl (pH 7.4)/0.1% BSA (cannabinoid) or ice-cold 50 mM Tris-HCl (pH 7.4) (opioid). Radiodetection was measured with 50 µL (cannabinoid) or 25 µL (opioid) of MicroScint^TM-20 on a TopCount NXT HTS Microplate Scintillation Counter (PerkinElmer, Waltham, MA, USA). The IC50 and Ki values were calculated via a non-linear curve fit model using GraphPad Prism 5.0 software (GraphPad Software, Inc., San Diego, CA, USA). Each compound was tested in triplicate unless stated otherwise.
# CB2 receptor = target: T2, CB2 receptor (Homo sapiens, UniProt P34972); experiment: Competitive radioligand binding assay, CB2; details: for Percent displacement, CB2: 10 μM, [3H]-CP55,940; for Ki: * tested up to solubility limit, conc. at 33.3 μM and above precipitated, read-out: CB2 Ki ± SEM
# T2 construct: expressed in transfected cells; host or cells: HEK293 (ATCC), stably transfected; membranes
# Method: as §2, §3, §4, §5, §6
# AP-1 = experiment: Luciferase reporter assay, AP-1, HeLa; type: cell-based, human; details: Homo sapiens, read-out: IC50, Ap-1 (PMA)
# Method: as §1
# ETS = experiment: Luciferase reporter assay, ETS, HeLa; type: cell-based, human; details: Homo sapiens; HeLa cells; inducer PMA; dash: not inhibited by more than 40% at 50 µmol/L
# Method: as §1
# Myc = experiment: Luciferase reporter assay, Myc, HeLa; type: cell-based; details: Homo sapiens; HeLa cells; inducer PMA; dash: not inhibited by more than 40% at 50 µmol/L
# Method: as §1
# NF-κB = experiment: Luciferase reporter assay, NF-κB, HeLa; type: cell-based; details: Homo sapiens; HeLa cells; inducer PMA; dash: not inhibited by more than 40% at 50 µmol/L
# Method: as §1
# Wnt = experiment: Luciferase reporter assay, Wnt, HeLa; type: cell-based; details: Homo sapiens; HeLa cells; inducer m-wnt3a; dash: not inhibited by more than 40% at 50 µmol/L
# Method: as §1
# Stat3 = experiment: Luciferase reporter assay, Stat3, HeLa; type: cell-based, human; details: Homo sapiens; HeLa cells; inducer IL6; dash: not inhibited by more than 40% at 50 µmol/L
# Method: as §1
# Smad2/3 = experiment: Luciferase reporter assay, Smad2/3, HeLa; type: cell-based, human; details: Homo sapiens; HeLa cells; inducer TGF-beta; dash: not inhibited by more than 40% at 50 µmol/L
# Method: as §1
# Notch = experiment: Luciferase reporter assay, Notch, HeLa; type: cell-based; details: Homo sapiens; HeLa cells; inducer PMA; dash: not inhibited by more than 40% at 50 µmol/L
# Method: as §1
# [1] = test system: SK-MEL, KB, BT-549, SK-OV-3, HeLa, LLC-PK1 and Vero cells; experiment: Cytotoxicity, summary over the cell line panel; type: cell-based; details: highest tested concentration of 50 µg/mL; most of the cells
# Method: (§7) In vitro cytotoxic activity was determined against five human cancer cell lines—malignant melanoma (SK-MEL), epidermal carcinoma oral (KB), ductal carcinoma breast (BT-549), ovary carcinoma (SKOV-3) and cervical (HeLa) cancer cells—and two non-cancerous kidney cell lines (LLC-PK1 and Vero). All cell lines were obtained from the American Type Culture Collection (ATCC, Rockville, MD, USA). Each assay was performed in 96-well tissue culture-treated microplates. The cells were seeded at a density of 25,000 cells/well and incubated for 24 h. Samples at different concentrations were added, and the cells were incubated again for 48 h. At the end of the incubation, the cell viability was determined using Neutral Red dye according to a modification of the procedure used by Borenfreund et al.. IC50 values were determined from dose–response curves of the percent growth inhibition against test concentrations. Doxorubicin was used as a positive control, while DMSO was used as the negative (vehicle) control.
# [2] = test system: cannabinoid receptor 1 (CB1 receptor); details: earlier studies; cited from earlier work
# E2F = experiment: Luciferase reporter assay, E2F, HeLa; type: cell-based, human; details: Homo sapiens, HeLa, read-out: IC50, E2F (PMA)
# Method: as §1
# δ opioid receptor = target: T3, δ opioid receptor (Homo sapiens, UniProt P41143); experiment: Competitive radioligand binding assay, δ opioid; details: for inhibition at 10 µM: [3H]-enkephalin (DPDPE), read-out: Percent displacement, Δ; for Ki: NA = not active, read-out: Δ Ki ± SEM
# T3 construct: host or cells: HEK293, stably transfected; membranes
# Method: as §2, §3, §4, §5, §6
# [3] = Cytotoxicity, Neutral Red, SK-MEL; type: cell-based; details: human, SK-MEL malignant melanoma cells, Na = not active up to 50 µg/mL
# Method: as §7
# FoxO = experiment: Luciferase reporter assay, FoxO, HeLa; type: cell-based; details: Homo sapiens; HeLa cells; no inducer; dash: no activity detected; read-out: IC50, FoxO (None)
# Method: as §1
# CB1 receptor = target: T4, CB1 receptor (Homo sapiens, UniProt P21554); experiment: Competitive radioligand binding assay, CB1; details: for Percent displacement, CB1: 10 μM, [3H]-CP55,940
# T4 construct: expressed in transfected cells; host or cells: HEK293 (ATCC), stably transfected; membranes
# Method: as §2, §3, §4, §5, §6
# [4] = Cytotoxicity, Neutral Red, KB; type: cell-based; details: human, KB epidermal carcinoma (oral) cells, Na = not active up to 50 µg/mL
# Method: as §7
# [5] = Solubility in aqueous assay buffer; details: aqueous buffer of the radioligand binding assay
# [6] = Cytotoxicity, Neutral Red, BT-549; type: cell-based; details: human, BT-549 breast ductal carcinoma cells, Na = not active up to 50 µg/mL
# Method: as §7
# [7] = Cytotoxicity, Neutral Red, LLC-PK1; type: cell-based; details: pig, LLC-PK1 kidney epithelial cells, Na = not active up to 50 µg/mL
# Method: as §7
# [8] = Cytotoxicity, Neutral Red, SK-OV-3; type: cell-based; details: human, SK-OV-3 ovary carcinoma cells, Na = not active up to 50 µg/mL
# Method: as §7
# [9] = Cytotoxicity, Neutral Red, Vero; type: cell-based; details: monkey, Vero kidney fibroblasts, Na = not active up to 50 µg/mL
# Method: as §7
# [10] = Cytotoxicity, Neutral Red, HeLa; type: cell-based; details: human, HeLa cervical cancer cells, Na = not active up to 50 µg/mL
# Method: as §7
# T1 sequence (P35372 whole entry): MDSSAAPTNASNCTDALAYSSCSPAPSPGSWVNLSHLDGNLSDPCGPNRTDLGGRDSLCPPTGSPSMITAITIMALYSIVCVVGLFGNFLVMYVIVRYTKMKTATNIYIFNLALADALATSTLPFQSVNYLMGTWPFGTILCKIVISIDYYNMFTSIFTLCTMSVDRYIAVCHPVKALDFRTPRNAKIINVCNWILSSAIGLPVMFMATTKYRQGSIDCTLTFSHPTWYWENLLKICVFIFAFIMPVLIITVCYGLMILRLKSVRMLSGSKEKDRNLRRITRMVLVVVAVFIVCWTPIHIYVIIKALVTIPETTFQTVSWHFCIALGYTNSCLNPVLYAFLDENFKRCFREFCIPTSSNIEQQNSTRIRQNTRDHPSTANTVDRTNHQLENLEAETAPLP
# T3 sequence (P41143 whole entry): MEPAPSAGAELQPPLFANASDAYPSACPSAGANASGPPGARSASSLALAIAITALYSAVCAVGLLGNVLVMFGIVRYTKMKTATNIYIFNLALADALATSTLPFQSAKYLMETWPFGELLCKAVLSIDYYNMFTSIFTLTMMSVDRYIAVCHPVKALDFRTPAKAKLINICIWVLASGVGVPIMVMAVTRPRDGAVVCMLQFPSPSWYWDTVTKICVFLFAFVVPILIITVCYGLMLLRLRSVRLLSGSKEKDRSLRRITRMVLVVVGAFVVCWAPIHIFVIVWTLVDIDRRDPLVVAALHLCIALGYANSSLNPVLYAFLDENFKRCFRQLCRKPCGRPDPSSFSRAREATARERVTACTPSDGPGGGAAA
# T2 sequence (P34972 whole entry): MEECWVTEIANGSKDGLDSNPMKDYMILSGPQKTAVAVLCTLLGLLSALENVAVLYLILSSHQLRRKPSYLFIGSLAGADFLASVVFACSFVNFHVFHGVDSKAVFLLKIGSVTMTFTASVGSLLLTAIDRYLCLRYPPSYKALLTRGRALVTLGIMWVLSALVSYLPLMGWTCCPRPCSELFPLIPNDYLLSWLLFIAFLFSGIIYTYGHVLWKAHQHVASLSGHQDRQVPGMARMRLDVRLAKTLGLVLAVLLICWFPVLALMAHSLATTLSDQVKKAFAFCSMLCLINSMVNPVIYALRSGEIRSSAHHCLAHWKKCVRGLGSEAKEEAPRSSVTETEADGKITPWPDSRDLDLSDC
# T4 sequence (P21554 whole entry): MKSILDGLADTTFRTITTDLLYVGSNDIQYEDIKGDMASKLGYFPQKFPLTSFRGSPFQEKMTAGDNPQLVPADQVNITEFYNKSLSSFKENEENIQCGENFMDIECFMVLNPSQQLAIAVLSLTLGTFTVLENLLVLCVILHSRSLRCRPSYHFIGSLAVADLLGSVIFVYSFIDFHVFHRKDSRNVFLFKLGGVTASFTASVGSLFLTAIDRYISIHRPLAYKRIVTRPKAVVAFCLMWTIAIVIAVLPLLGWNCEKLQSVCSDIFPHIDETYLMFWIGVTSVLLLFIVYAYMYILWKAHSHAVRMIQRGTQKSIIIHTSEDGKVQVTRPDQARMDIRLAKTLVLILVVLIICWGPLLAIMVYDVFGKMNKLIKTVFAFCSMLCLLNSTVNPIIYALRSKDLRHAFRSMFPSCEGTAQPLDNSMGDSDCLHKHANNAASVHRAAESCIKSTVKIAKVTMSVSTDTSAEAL
SMILES,IC50 (Hedgehog) [µM],"Percent displacement, µ (μ opioid receptor) [%]","Percent displacement, CB2 (CB2 receptor) [%]",IC50 (AP-1) [µM],IC50 (ETS) [µM],IC50 (Myc) [µM],IC50 (NF-κB) [µM],IC50 (Wnt) [µM],IC50 (Stat3) [µM],IC50 (Smad2/3) [µM],IC50 (Notch) [µM],Cytotoxicity (in words) [1],IC50 (E2F) [µM],inhibition at 10 µM (δ opioid receptor) [%],IC50 at 48 h [3] [µg/mL],IC50 (FoxO) [µM],Ki (CB2 receptor) [nM],"Percent displacement, CB1 (CB1 receptor) [%]",IC50 at 48 h [4] [µg/mL],IC50 at 48 h [6] [µg/mL],further results
"C[C@H]1CC[C@H]2[C@H](C1)c1c(O)cc(-c3cc4ccccc4o3)cc1OC2(C)C [compound 2, machaeriol B]",6.9,37.6,13.7,10,9.5,7.7,8.4,9.1,11.3,11,7.3,inactive,8.8,61.7,> 50,> 50,,,,,Affinity for CB1 (in words) [2]: insignificant affinity; also recorded: did not show any affinity
"C[C@@H]1C[C@@H]2c3c(O)cc(-c4cc5ccccc5o4)cc3OC(C)(C)[C@H]2C[C@H]1O [compound 4, machaeriol D]",21,16.8,81.5,21,25,18,20,20,22,11,25,,24,28.2,,> 50,> 1300,4.5,,,Affinity for CB1 receptor (in words) (CB1 receptor; receptor displacement assay): little or no affinity
"C[C@H]1CC[C@H]2[C@H](C1)c1c(O)cc(/C=C/c3ccccc3)cc1OC2(C)C [compound 1, machaeriol A]",8.2,52.9,24.4,12,8.5,8.5,10.7,11.9,14,13.7,7,,11,1.8,,> 50,,18.4,,,Affinity for CB1 (in words) [2]: insignificant affinity; also recorded: did not show any affinity
"C=C(C)[C@H]1CC[C@H](C)C[C@@H]1c1c(O)cc(/C=C/c2ccccc2)cc1O [compound 5, machaeridiol A]",11,45.6,65.4,11,11.8,9.5,8.1,3.5,10.5,4.5,> 50,inactive,10,43.3,> 50,> 50,> 1770,7.8,> 50,> 50,Ki (μ opioid receptor): 16.8 ± 3.31 µM; solubility [5]: < 33.3 µM; Ki (δ opioid receptor): 9.41 ± 1.02 µM
"C=C(C)[C@H]1CC[C@H](C)C[C@@H]1c1c(O)cc(-c2cc3ccccc3o2)cc1O [compound 7, machaeridiol C]",8.8,31.7,57.9,6.7,7.2,6.8,2,> 50,11.2,2.5,12,inactive,8.7,26.6,> 50,> 50,> 1110,,> 50,47,Ki (μ opioid receptor): 4.01 ± 0.65 µM; solubility [5]: < 33.3 µM; Δ pKi (δ opioid receptor): 4.91; Ki (δ opioid receptor): 12.2 ± 1.19 µM
"COc1cccc2c1C(=O)c1c(O)c3c(c(O)c1C2=O)C[C@@](O)(C(=O)CO)C[C@@H]3O[C@H]1C[C@H](N)[C@H](O)[C@H](C)O1 [Doxorubicin, reference compound]",,,,,,,,,,,,,,,2.2,,,,2.4,2.4,IC50 at 48 h [7]: 1.1 µg/mL; IC50 at 48 h [8]: 2 µg/mL; IC50 at 48 h [9]: > 5 µg/mL; IC50 at 48 h [10]: 4.3 µg/mL
